Experimental data reported in patent US4206127A, “5,6-Dihydro analogues of prostaglandin I2” (Miles Laboratories, Inc., priority 1978, dated 1980).

Key:
rat gastric secretion = experiment: Effects of Prostaglandin Analogues on Gastric Secretion in the Rat (Test B); type: in vivo; details: pylorus-ligated rats, subcutaneous 1.5 mg/kg twice (total 3.0 mg/kg), 4 hours
Protocol: B. Evaluation of the Effects of Prostaglandin Analogues on Gastric Secretion in the Rat
A procedure based on that described by Lipmann (J. Pharm. Pharmacol., 21: 335 [1968]) was used to assess the influence of test compounds on gastric secretion. Rats of one sex weighing 150 to 200 g were randomly divided into groups of six animals each and fasted for 48 hours previously to the experiments, water being available ad libitum. The animals were anesthetized with ether, the abdomen was opened through a midline incision and the pylorus was ligated. Test compounds were diluted from stock solution so as to administer a dose of 1.5 mg/kg in a volume equivalent to 1 ml/kg. Subcutaneous injections were applied immediately after surgery and again 2 hours later, so that a total dose of 3.0 mg/kg was administered. Dilutions were made with phosphate buffer (pH 7.38), as recommended by Lee et al. (Prostaglandins 3: 29 [1973]), in order to insure adequate stability of drugs at the subcutaneous depot. […]
Four hours after pyloric ligation the animals were killed with ether, the cardias ligated and stomachs removed. The volume of gastric secretion was measured and the contents centrifuged at 5000 rpm for 10 minutes. […]
Volume and total acid values of the treated group were compared with those of the controls by the "Squared" test. Antisecretory activity was scored according to the following scale: […]

platelet aggregation = details: cited from earlier work
blood vessels = details: cited from earlier work

Row | Compound | Activity Value, Test B - inhibition of rat gastric secretion (score of % decrease in acidity) (rat gastric secretion) | inhibition of platelet aggregation (platelet aggregation) | destruction of platelet clumps (platelet aggregation; in vitro, clumps already induced to form) | dilation of blood vessels (blood vessels)
1 | 9-Deoxy-9a-Homo-6, 9α-epoxy-15S-hydroxyprost-13E-en-1-oic acid [TR-4921] | 2 (26-50, significant) |  |  | 
2 | Ethyl 5, 9β-Epoxy-11α,15-dihydroxy-16,20-methanoprost-13E-en-1-oate [TR-4973] | 0 (<26) |  |  | 
3 | CCCCC[C@H](O)/C=C/[C@@H]1[C@H]2C/C(=C/CCCC(=O)O)O[C@H]2C[C@H]1O [PGI2, (5Z)-9-deoxy-6, 9α-epoxy-Δ^5-prostaglandin F1α] |  | the most potent inhibitor of platelet clumping of all the prostaglandins discovered to date | destroys platelet clumps after they have been induced to form | dilates blood vessels dramatically
